Experimental data as given in ChEMBL document CHEMBL1130899, “Development of dual-acting agents for thromboxane receptor antagonism and thromboxane synthase inhibition. 2. Design, synthesis, and evaluation of a novel series of phenyl oxazole derivatives” (Bioorg Med Chem Lett, 1998).

Columns and labels:
Thromboxane-A synthase = target: T1, Thromboxane-A synthase (Homo sapiens, UniProt P24557); experiment: In vitro inhibition of thromboxane synthase (TSI) activity was determined by using human serum levels of TXB2; format: cell-free
T1 sequence (P24557 whole entry): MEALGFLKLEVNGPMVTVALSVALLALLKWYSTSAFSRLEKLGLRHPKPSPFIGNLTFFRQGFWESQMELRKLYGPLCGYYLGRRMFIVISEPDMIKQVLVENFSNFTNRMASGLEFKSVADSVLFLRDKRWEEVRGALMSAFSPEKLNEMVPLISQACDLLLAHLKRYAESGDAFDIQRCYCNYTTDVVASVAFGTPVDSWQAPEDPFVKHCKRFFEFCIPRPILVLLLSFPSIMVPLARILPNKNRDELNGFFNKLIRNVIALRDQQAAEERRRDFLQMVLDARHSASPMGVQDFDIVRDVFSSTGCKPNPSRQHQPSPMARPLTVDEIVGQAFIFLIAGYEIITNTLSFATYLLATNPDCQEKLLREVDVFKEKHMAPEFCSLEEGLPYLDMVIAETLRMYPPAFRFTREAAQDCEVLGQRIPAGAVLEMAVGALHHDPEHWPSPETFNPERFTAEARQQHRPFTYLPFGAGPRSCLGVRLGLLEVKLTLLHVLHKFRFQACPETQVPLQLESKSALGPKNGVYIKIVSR

Thromboxane A2 receptor = target: T2, Thromboxane A2 receptor (Homo sapiens, UniProt P21731); experiment: In vitro thromboxane receptor antagonism was determined using a human platelet binding assay
T2 sequence (P21731 whole entry): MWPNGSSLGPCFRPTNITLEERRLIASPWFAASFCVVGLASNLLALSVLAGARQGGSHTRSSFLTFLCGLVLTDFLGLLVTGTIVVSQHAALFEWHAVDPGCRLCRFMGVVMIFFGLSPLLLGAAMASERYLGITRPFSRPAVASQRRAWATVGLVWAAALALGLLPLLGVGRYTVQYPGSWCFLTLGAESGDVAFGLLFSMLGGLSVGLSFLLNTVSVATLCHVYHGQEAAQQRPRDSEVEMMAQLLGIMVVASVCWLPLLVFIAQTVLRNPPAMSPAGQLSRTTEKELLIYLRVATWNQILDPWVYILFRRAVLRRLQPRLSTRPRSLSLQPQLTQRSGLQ

[1] = Partition coefficient (logP); format: physicochemical; conditions: octanol/water

IC50 (Thromboxane-A synthase) [nM] | Kd (Thromboxane A2 receptor) [nM] | logP [1] | SMILES
31.2 | 153 | 5.23 | CCCCCNC(=O)c1coc(-c2ccc(/C(=C\CCCCC(=O)O)c3cccnc3)cc2)n1
– | 1500 | – | O=C(O)CCCC/C=C(\c1cccnc1)c1ccccc1-c1nc(C(=O)NCCCCC2CCCCC2)co1
19 | 12.3 | – | O=C(O)CCCC/C=C(/c1cccnc1)c1cccc(-c2nc(C(=O)NCCCCC3CCCCC3)co2)c1
– | 540 | – | O=C(O)CCCC/C=C(/c1cccnc1)c1ccccc1-c1nc(C(=O)NCCCCC2CCCCC2)co1
– | 830 | – | O=C(O)CCCC/C=C(\c1cccnc1)c1cccc(C2=N[C@@H](C(=O)NCCCCC3CCCCC3)CO2)c1
550 | – | 7.35 | O=C(O)CCCC/C=C(\c1ccc(-c2nc(C(=O)NCCCCC3CCCCC3)co2)cc1)c1cccnc1
– | 244 | – | CCCCCNC(=O)[C@@H]1COC(c2ccc(/C(=C\CCCCC(=O)O)c3cccnc3)cc2)=N1
3170 | 93.3 | – | O=C(O)CC/C=C(\c1ccc(-c2nc(C(=O)NCCCCC3CCCCC3)co2)cc1)c1cccnc1
23 | 630 | – | O=C(O)CCCC/C=C(\c1cccnc1)c1cccc(-c2nc(C(=O)NCCCCC3CCCCC3)co2)c1
– | 8200 | – | O=C(O)CCCC/C=C(\c1ccccc1)c1cccnc1 [(E)-ISBOGREL]

SMILES | IC50 (Thromboxane-A synthase) [nM] | Kd (Thromboxane A2 receptor) [nM] | logP [1]
O=C(O)CCCC/C=C(\c1ccc(C2=N[C@@H](C(=O)NCCCCC3CCCCC3)CO2)cc1)c1cccnc1 | 82.1 | – | –
O=C(O)CCCC/C=C(/c1ccc(C2=N[C@@H](C(=O)NCCCCC3CCCCC3)CO2)cc1)c1cccnc1 | > 10000 | – | –
O=C(O)CCCC/C=C(/c1ccc(-c2nc(C(=O)NCCCCC3CCCCC3)co2)cc1)c1cccnc1 | – | 147 | –
